Assay results from patent US20100227935A1, “CLASS OF TERPENE-DERIVED COMPOUNDS HAVING AN ANTIBIOTIC ACTIVITY, COMPOSITIONS CONTAINING THE SAME AND USES THEREOF” (Centre National De La Recherche Scientifique, priority 2006, published 2010).
≈ marks a conversion by molar mass, not a printed value.

How the values were obtained:
[1] = system: Staphylococcus aureus H1; experiment: MIC / antibiotic susceptibility; format: cell-based; also: key: R: strain resistant to antibiotic concerned; S: strain sensitive to antibiotic concerned; L strain with intermediate resistance to antibiotic concerned
[2] = system: Staphylococcus aureus H4; experiment: MIC / antibiotic susceptibility; format: cell-based; also: key: R: strain resistant to antibiotic concerned; S: strain sensitive to antibiotic concerned; L strain with intermediate resistance to antibiotic concerned
[3] = system: Staphylococcus aureus H3; experiment: MIC / antibiotic susceptibility; format: cell-based; also: key: R: strain resistant to antibiotic concerned; S: strain sensitive to antibiotic concerned; L strain with intermediate resistance to antibiotic concerned
[4] = system: Staphylococcus aureus H16; format: cell-based
[5] = system: Staphylococcus aureus H18; experiment: MIC / antibiotic susceptibility; format: cell-based; also: key: R: strain resistant to antibiotic concerned; S: strain sensitive to antibiotic concerned; L strain with intermediate resistance to antibiotic concerned
[6] = system: Staphylococcus aureus H7; experiment: MIC / antibiotic susceptibility; format: cell-based
[7] = system: Staphylococcus aureus H9; experiment: MIC / antibiotic susceptibility; format: cell-based
[8] = system: C. difficile; settings: molecules in current use or in clinical trials (phase III); cited from earlier work
[9] = system: C. difficile; settings: cited from earlier work

| Molecule | Susceptibility of strain to antibiotic [1] | Susceptibility of strain to antibiotic [2] | Susceptibility of strain to antibiotic [3] | Susceptibility of strain to antibiotic [4] | Susceptibility of strain to antibiotic [5] | Susceptibility of strain to antibiotic [6] | Susceptibility of strain to antibiotic [7] | MIC on C. difficile [8] | Patients for whom the drug is inactive ([9]; first intention treatment of C. difficile infection) | Relapses ([9]; treatment of C. difficile infection) |
| --- | --- | --- | --- | --- | --- | --- | --- | --- | --- | --- |
| CN(C)[C@@H]1C(O)=C(C(N)=O)C(=O)[C@@]2(O)C(O)=C3C(=O)c4c(O)cccc4[C@@](C)(O)[C@H]3C[C@@H]12 [Tetracycline] | S | S | S | R |  |  |  |  |  |  |
| NC[C@H]1O[C@H](O[C@H]2[C@H](O)[C@@H](O[C@H]3O[C@H](CO)[C@@H](O)[C@H](N)[C@H]3O)[C@H](N)C[C@@H]2N)[C@H](N)C[C@@H]1O [Tobramycin] | S | R | S | R | R | S | S |  |  |  |
| CC[C@H]1OC(=O)[C@H](C)[C@@H](O[C@H]2C[C@@](C)(OC)[C@@H](O)[C@H](C)O2)[C@H](C)[C@@H](O[C@@H]2O[C@H](C)C[C@H](N(C)C)[C@H]2O)[C@](C)(O)C[C@@H](C)C(=O)[C@H](C)[C@@H](O)[C@]1(C)O [Erythromycin] | S | S | R | R | R | R | R |  |  |  |
| CO[C@H]1/C=C/O[C@@]2(C)Oc3c(C)c(O)c4c(O)c(c(/C=N/N5CCN(C)CC5)c(O)c4c3C2=O)NC(=O)/C(C)=C\C=C\[C@H](C)[C@H](O)[C@@H](C)[C@@H](O)[C@@H](C)[C@H](OC(C)=O)[C@@H]1C [Rifampicin] | S | S | S | R | S | S | S |  |  |  |
| CC1(C)S[C@@H]2[C@H](NC(=O)[C@H](N)c3ccc(O)cc3)C(=O)N2[C@H]1C(=O)O [Amoxicillin] | R | R | R | R | R | R | R |  |  |  |
| CC(=O)O[C@H]1C[C@@]2(C)[C@@H](C[C@@H](O)[C@H]3[C@@]4(C)CC[C@@H](O)[C@@H](C)[C@@H]4CC[C@@]32C)/C1=C(\CCC=C(C)C)C(=O)O [Fusidic acid] | S | S | S | S | S | S | R |  |  |  |
| Cc1nnc(SCC2=C(C(=O)O)N3C(=O)[C@@H](NC(=O)Cn4cnnn4)[C@H]3SC2)s1 [Cefazoline] | S | R | S | R | R | S | S |  |  |  |
| CCn1cc(C(=O)O)c(=O)c2cc(F)c(N3CCNCC3)cc21 [Norfloxacin] | S | R | R | R | R | R | S |  |  |  |
| CC(=O)Oc1ccccc1C(=O)Nc1ncc([N+](=O)[O-])s1 [Nitazoxanide] |  |  |  |  |  |  |  | 0.1 µg/mL (≈ 0.325 µM) |  |  |
| Cc1ncc([N+](=O)[O-])n1CCO [Metronidazole] |  |  |  |  |  |  |  | 1 µg/mL (≈ 5.84 µM) | 25% | 25 % of cases |
| CCN1CCN(C(=O)N[C@@H](C(=O)N[C@@H]2C(=O)N3[C@@H]2SC(C)(C)[C@@H]3C(=O)O)c2ccccc2)C(=O)C1=O [Piperacillin] | R | R | R | R | R | R | R |  |  |  |
| Gentamicin | S | S | S | R | S | S | S |  |  |  |
| C[C@H]1c2cccc(O)c2C(O)=C2C(=O)[C@]3(O)C(O)=C(C(N)=O)C(=O)[C@@H](N(C)C)[C@@H]3[C@@H](O)[C@@H]21 [Doxycyclin] | S | S | S |  | S | S | S |  |  |  |
| Cc1onc(-c2ccccc2)c1C(=O)N[C@@H]1C(=O)N2[C@@H]1SC(C)(C)[C@@H]2C(=O)O [Oxacillin] | S | R | S | R | R | S | S |  |  |  |
| CC1(C)S[C@@H]2[C@H](NC(=O)Cc3ccccc3)C(=O)N2[C@H]1C(=O)O [Penicillin G] | R | R | R | R | R | R | R |  |  |  |
| Teicoplanin | S | S | S |  | R | S | S |  |  |  |
| Pristinamycin | S | S | S |  | S | S | S |  |  |  |
| Co-trimoxazole | S | S | S | S | S | S | S |  |  |  |
| C[C@@H]1O[C@@H]1P(=O)(O)O [Fosfomycin] | S | S | S | R | R | S | S |  |  |  |
| CO[C@H]1/C=C/O[C@@]2(C)Oc3c(C)c(O)c4c(O)c(c5c(nc6cc(C)ccn65)c4c3C2=O)NC(=O)/C(C)=C\C=C\[C@H](C)[C@H](O)[C@@H](C)[C@@H](O)[C@@H](C)[C@H](OC(C)=O)[C@@H]1C [Rifaximin] |  |  |  |  |  |  |  | 0.08 to 0.2 µg/mL |  |  |
| CN[C@H](CC(C)C)C(=O)N[C@H]1C(=O)N[C@@H](CC(N)=O)C(=O)N[C@H]2C(=O)N[C@H]3C(=O)N[C@H](C(=O)N[C@H](C(=O)O)c4cc(O)cc(O)c4-c4cc3ccc4O)[C@H](O)c3ccc(c(Cl)c3)Oc3cc2cc(c3O[C@@H]2O[C@H](CO)[C@@H](O)[C@H](O)[C@H]2O[C@H]2C[C@](C)(N)[C@H](O)[C@H](C)O2)Oc2ccc(cc2Cl)[C@H]1O [Vancomycin] | S | S | S | S | R | S | S | ~1 µg/mL (≈ 0.69 µM) |  |  |
| CC1COc2c(N3CCN(C)CC3)c(F)cc3c(=O)c(C(=O)O)cn1c23 (stereo not drawn) [Ofloxacin] | S | R | R | R | R | R | S |  |  |  |
| CCc1c(Cl)c(O)c(Cl)c(O)c1C(=O)O[C@H]1[C@H](O)[C@H](OC)[C@H](OC/C2=C\C=C\C[C@H](O)/C(C)=C/[C@H](CC)[C@@H](O[C@@H]3OC(C)(C)[C@@H](OC(=O)C(C)C)[C@H](O)[C@@H]3O)/C(C)=C/C(C)=C/C[C@@H]([C@@H](C)O)OC2=O)O[C@@H]1C [Lipiarmycin] |  |  |  |  |  |  |  | 0.06 to 2 µg/mL |  |  |
| NCC[C@H](O)C(=O)N[C@@H]1C[C@H](N)[C@@H](O[C@H]2O[C@H](CN)[C@@H](O)[C@H](O)[C@H]2O)[C@H](O)[C@H]1O[C@H]1O[C@H](CO)[C@@H](O)[C@H](N)[C@H]1O [Amikacin] | S | R | S | R | R | S | S |  |  |  |
